Numbered stars: 1 amine (or outer) side, 2 acyl side, 3 side chain; on linkers, the order of the positions; unused ones are H or OH. Bridge positions count the residues as written; N and C are the ends. Peptide text beside a SMILES is read from it. * marks the point of attachment. C20 diacid = O=C(O)CCCCCCCCCCCCCCCCCCC(=O)*; γGlu = O=C(O)[C@H](CCC(=O)[*:2])N[*:1]
Key:
[1] = target: T1, rat amylin receptor (rat calcitonin receptor + rat RAMP 3) (Rattus norvegicus, UniProt P32214+Q9JJ73); test: ASSAY (VI) binding to the rat amylin receptor; details: Table 7
T1 construct: expressed in transfected cells; host or cells: BHK tk'ts 13 (transient, FuGENE 6), membranes
T1 sequence (P32214 25-479 isoform P32214-2 limits assumed): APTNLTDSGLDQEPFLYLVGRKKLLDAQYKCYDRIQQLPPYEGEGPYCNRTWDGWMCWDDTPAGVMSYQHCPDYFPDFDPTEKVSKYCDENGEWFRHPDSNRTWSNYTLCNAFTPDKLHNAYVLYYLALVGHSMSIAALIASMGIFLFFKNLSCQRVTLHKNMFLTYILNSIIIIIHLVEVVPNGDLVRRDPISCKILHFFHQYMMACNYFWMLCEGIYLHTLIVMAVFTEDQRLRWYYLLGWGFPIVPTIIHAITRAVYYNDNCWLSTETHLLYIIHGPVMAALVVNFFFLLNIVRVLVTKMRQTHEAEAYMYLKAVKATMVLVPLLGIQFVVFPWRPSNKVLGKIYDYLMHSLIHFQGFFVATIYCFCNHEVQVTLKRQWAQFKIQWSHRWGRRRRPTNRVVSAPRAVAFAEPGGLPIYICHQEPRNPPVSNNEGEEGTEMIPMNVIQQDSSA
T1 sequence (Q9JJ73 23-147 partner): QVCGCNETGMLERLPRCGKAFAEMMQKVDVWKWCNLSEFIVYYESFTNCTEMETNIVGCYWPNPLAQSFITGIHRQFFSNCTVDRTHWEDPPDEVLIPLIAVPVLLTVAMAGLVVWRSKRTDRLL
Protocol: Assay (VI)—Determination of the Binding to the Rat Amylin Receptor […] The BHK tk′ts 13 cells were transiently transfected with rat calcitonin receptor using FuGENE® 6 (Roche), according to the manufacturer's recommendations. […] Approximately 48 hours after transfection, the cells were harvested and membranes were prepared.

[2] = target: T2, human amylin 3(a) receptor (human calcitonin receptor + RAMP-3) in BHK570 cells (Homo sapiens, UniProt O60896+P30988); test: ASSAY (II)a functional assay, human amylin receptor (CRE luciferase); format: cell-based
T2 construct: expressed in transfected cells
Excerpt: 1. Luciferase Assay Outline
Activation of calcitonin and amylin (coexpression of calcitonin receptor and receptor activity modifying proteins (RAMP)) receptors lead to increased intracellular concentrations of cAMP. Consequently, transcription is activated by promoters containing multiple copies of the cAMP response element (CRE). It is thus possible to measure amylin activity by the use of a CRE luciferase reporter gene introduced into BHK cells also expressing calcitonin or amylin receptors.
2. Construction of Calcitonin (a)- and Amylin 3(a)-Receptor/CRE-Luc Cell Line.
The cell line was further transfected with RAMP-3, using standard methods. This turns the calcitonin receptor into an amylin 3(a) receptor. Methotrexate, Neomycin, and Hygromycin are selection markers for luciferase, the calcitonin receptor, and RAMP-3, respectively.
To perform activity assays, BHK calcitonin (a) receptor- or amylin 3(a)-receptor/CRE-luc cells were seeded in white 96 well culture plates at a density of about 20.000 cells/well. […] After incubation overnight at 37° C. and 5% CO2, the growth medium was replaced by 50 μl/well assay medium (DMEM (without phenol red), Glutamax™, 10% FBS, and 10 mM Hepes, pH 7.4). Further, 50 μl/well of standard or sample in assay buffer were added. After 3 hours incubation at 37° C. and 5% CO2, the assay medium with standard or sample were removed and replaced by 100 μl/well PBS. Further, 100 μl/well LucLite™ was added. The plates were sealed and incubated at room temperature for 30 minutes. Finally, luminescence was measured on a TopCounter (Packard) in SPC (single photon counting) mode.

[3] = target: T3, human amylin receptor (membranes from Amylin 3(a)/CRE-luc cells) (Homo sapiens, UniProt O60896+P30988); test: ASSAY (V) binding to the human amylin receptor (SPA, 125I-rat amylin);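 also: competition binding of cell membranes (35 ng/µL) mixed with SPA beads in 384-well plates at 40 µL total volume, read by scintillation counting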
T3 construct: expressed in transfected cells
T3 sequence (P30988 25-474): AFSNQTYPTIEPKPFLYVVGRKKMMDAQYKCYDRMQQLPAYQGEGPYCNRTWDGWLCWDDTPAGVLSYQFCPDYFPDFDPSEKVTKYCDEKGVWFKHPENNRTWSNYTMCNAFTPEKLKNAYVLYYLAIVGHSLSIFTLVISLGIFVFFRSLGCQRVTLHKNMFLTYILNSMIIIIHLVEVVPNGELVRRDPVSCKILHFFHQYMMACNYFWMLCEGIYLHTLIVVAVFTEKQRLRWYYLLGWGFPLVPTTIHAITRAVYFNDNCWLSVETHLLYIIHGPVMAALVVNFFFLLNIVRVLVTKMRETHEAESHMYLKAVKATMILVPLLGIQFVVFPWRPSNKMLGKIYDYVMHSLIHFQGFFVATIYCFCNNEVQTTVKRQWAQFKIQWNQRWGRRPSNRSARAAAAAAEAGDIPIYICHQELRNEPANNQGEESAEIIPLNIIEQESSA
T3 sequence (O60896 24-148 partner): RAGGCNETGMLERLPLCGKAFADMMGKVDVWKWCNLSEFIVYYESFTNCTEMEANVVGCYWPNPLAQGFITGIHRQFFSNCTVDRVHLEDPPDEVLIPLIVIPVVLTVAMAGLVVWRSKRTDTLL

SMILES: CC(C)C[C@H](NC(=O)[C@H](CCCNC(=N)N)NC(=O)[C@H](CCC(N)=O)NC(=O)[C@@H](NC(=O)[C@H](C)NC(=O)[C@@H]1CSSC[C@H](NC(=O)[C@H](CCCCN)NC(=O)CC[C@H](NC(=O)CCCCCCCCCCCCCCCCCCC(=O)O)C(=O)O)C(=O)N[C@@H](CC(N)=O)C(=O)N[C@@H]([C@@H](C)O)C(=O)N[C@@H](C)C(=O)N[C@@H]([C@@H](C)O)C(=O)N1)[C@@H](C)O)C(=O)N[C@@H](C)C(=O)N[C@@H](CCC(=O)O)C(=O)N[C@@H](Cc1ccccc1)C(=O)N[C@@H](CC(C)C)C(=O)N[C@@H](CCCNC(=N)N)C(=O)N[C@@H](Cc1c[nH]cn1)C(=O)N[C@@H](CO)C(=O)N[C@@H](CO)C(=O)N1CCC[C@H]1C(=O)N[C@@H](CC(N)=O)C(=O)N[C@@H](Cc1ccccc1)C(=O)NCC(=O)N[C@@H](C)C(=O)N1CCC[C@H]1C(=O)N[C@@H](CC(C)C)C(=O)N[C@@H](CO)C(=O)N[C@@H](CO)C(=O)N[C@H](C(=O)N[C@@H](CC(N)=O)C(=O)N[C@H](C(=O)NCC(=O)N[C@@H](CO)C(=O)N[C@@H](CC(N)=O)C(=O)N[C@H](C(=O)N1CCC[C@H]1C(N)=O)[C@@H](C)O)C(C)C)[C@@H](C)O [Example 5] ({C20 diacid-γGlu}-KCNTATCATQRLAEFLRHSSPNFGAPLSSTNVGSNTP-NH2; disulfide 2-7)
- IC50 ([1]; binding to rat amylin receptor, read-out: rAmylin-R bind IC50): 1.3 nM
- Ratio rCT/rAmylin binding ([1]; rat binding selectivity, rCTR IC50 / rAmylin-R IC50): 3.6
- Ratio hCT/hAmylin funct. ([2]; hCTR funct. EC50 / hAmylin-R funct. EC50): 1.0
- Ratio hCT/hAmylin funct. ([2]; hCTR funct. EC50 over hAmylin-R funct. EC50): 1.0
- Ratio hCT/hAmylin funct. ([2]; human functional selectivity: hCTR funct. EC50 / hAmylin-R funct. EC50): 1.0
- Ratio hCT/hAmylin binding ([3]; Table 5, selectivity, hCTR bind IC50 / hAmylin-R bind IC50): 1.4
- Ratio hCT/hAmylin binding ([3]; Table 7, human binding selectivity, included for comparison): 1.4

Source: patent publication US9023789B2, “Amylin analogs and pharmaceutical compositions thereof” (Novo Nordisk A/S, priority 2012, dated 2015)
